Laboratory results taken from publication PMC4255739 (Journal of Medicinal Chemistry, 2014).
Each block holds one compound with its values, some of them ahead of it.

Key:
cathepsin K = biological target: T1, cathepsin K (Homo sapiens, UniProt P43235); experiment: Protease profiling panel, cathepsin K; assay type: biochemical; settings: read-out: highest inhibitory activity against cathepsin K
T1 sequence (P43235 115-329): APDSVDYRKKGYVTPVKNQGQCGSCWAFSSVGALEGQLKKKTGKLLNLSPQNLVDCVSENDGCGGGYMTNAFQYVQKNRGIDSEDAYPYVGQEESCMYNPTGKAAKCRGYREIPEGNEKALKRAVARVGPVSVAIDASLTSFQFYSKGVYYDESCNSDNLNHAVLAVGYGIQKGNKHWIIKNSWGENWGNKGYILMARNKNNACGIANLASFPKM

caspase 5 = biological target: T2, caspase 5 (Homo sapiens, UniProt P51878); experiment: Protease profiling panel, caspase 5; assay type: biochemical; settings: 20 μM to 0.1 nM range
T2 sequence (P51878 138-434 limits assumed): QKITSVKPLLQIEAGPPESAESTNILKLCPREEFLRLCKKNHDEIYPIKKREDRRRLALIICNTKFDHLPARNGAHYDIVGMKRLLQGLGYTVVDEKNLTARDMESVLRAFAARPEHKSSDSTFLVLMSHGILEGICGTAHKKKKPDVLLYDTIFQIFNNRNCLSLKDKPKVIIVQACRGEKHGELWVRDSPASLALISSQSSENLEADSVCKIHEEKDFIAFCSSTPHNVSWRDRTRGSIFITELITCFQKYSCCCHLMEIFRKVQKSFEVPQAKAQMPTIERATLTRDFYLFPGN

MMP-1 = settings: read-out: IC50 MMP-1; antitarget selectivity; cited from earlier work
MMP-8 = settings: read-out: IC50 MMP-8; antitarget selectivity; cited from earlier work
CYP3A4 = CYP3A4 (Homo sapiens, UniProt P08684); experiment: CYP450 panel inhibition, CYP3A4; settings: human liver microsomes, pH 7.4, probe testosterone
Chain of CYP3A4 (P08684 whole entry): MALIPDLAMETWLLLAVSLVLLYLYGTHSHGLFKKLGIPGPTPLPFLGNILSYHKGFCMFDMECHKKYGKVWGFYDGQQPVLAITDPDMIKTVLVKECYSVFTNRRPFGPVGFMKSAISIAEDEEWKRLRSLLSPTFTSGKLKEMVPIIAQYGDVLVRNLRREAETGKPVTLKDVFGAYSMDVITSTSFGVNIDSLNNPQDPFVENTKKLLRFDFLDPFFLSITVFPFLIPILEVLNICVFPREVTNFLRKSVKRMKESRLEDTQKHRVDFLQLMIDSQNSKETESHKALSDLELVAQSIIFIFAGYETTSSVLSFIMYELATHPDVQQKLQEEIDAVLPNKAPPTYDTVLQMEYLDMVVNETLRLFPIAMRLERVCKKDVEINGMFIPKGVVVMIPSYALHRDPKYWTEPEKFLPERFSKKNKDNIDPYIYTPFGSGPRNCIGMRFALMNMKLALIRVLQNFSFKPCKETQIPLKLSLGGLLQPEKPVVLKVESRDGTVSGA

MMP-13 [1] = biological target: T3, MMP-13 (Homo sapiens, UniProt P45452); experiment: Single inhibitor kinetics, MMP-13 hydrolysis of fTHP-15; assay type: biochemical
MMP-13 [2] = biological target: T3, MMP-13; experiment: Dual inhibition kinetics; assay type: biochemical
MMP-13 [3] = biological target: T3, MMP-13; experiment: Cartilage explant assay; assay type: biochemical; settings: read-out: inhibition of cartilage degradation

- inhibition at 20 µM (cathepsin K): 20%
- activity against caspase 5 on inspection of dose response (caspase 5): artifactual
- inhibition at 20 µM (CYP3A4): 20%
Compound: Cc1ccc(CSc2nc(O)c3c(n2)CCC3)cc1 [Compound 2]
- IC50 (MMP-1): > 40 µM
- IC50 (MMP-8): > 40 µM

- pKi (MMP-13 [1]; from fTHP-15 Ki): 2.9
- Ki (MMP-13 [1]; read-out: fTHP-15 Ki, fTHP-15 substrate, mixed inhibition model, nonlinear regression): 1190 µM
Compound: CC(=O)NO [Compound 6, N-hydroxyacetamide]

Compound: COC(=O)c1ccc(CSc2nc3c(c(=O)[nH]2)CCC3)cc1 [Compound 3]
- IC50 (MMP-1): > 40 µM
- IC50 (MMP-8): > 40 µM

- B value (Yonetani–Theorell) (MMP-13 [2]; 1 (0–2 μM) in combination with 6 (AHA, 0–1.25 mM), B<1 = synergistic binding): < 1
- B value (Yonetani–Theorell) (MMP-13 [2]; 1 in combination with 4, B<1 = positive cooperativity): < 1
- B value (Yonetani–Theorell) (MMP-13 [2]; 1 in combination with 5, B<1 = synergistic binding): < 1
- inhibition at 10 µM (MMP-13 [3]): 69 ± 17%
- inhibition at 20 µM (CYP3A4): 14%
Compound: Oc1nc(SCc2ccc(Cl)cc2)nc2c1CCC2 [Compound 1]
